The source made the active and inactive calls. The rule behind the calls is not given here.
Experiments:
[1] = Inhibition of gluconeogenesis in C57BL/6J mouse primary hepatocytes assessed as inhibition of glucagon-stimulated glucose production at 10 uM preincubated for 1.5 hrs followed by lactate and pyruvate addition and later stimulated with glucagon for 4 hrs; format: functional; conditions: Hepatocyte, time 5.5 hrs
[2] = Cytotoxicity against C57BL/6J mouse primary hepatocytes assessed as cell viability at 10 uM incubated for 24 hrs by MTT assay relative to control; format: toxicity, cell-based, Hepatocyte; conditions: read-out: Activity
[3] = Cytotoxicity against C57BL/6J mouse primary hepatocytes assessed as cell viability at 100 uM incubated for 24 hrs by MTT assay relative to control; format: toxicity, cell-based, Hepatocyte; conditions: read-out: Activity
[4] = Inhibition of gluconeogenesis in C57BL/6J mouse primary hepatocytes assessed as inhibition of glucagon-stimulated glucose production at 2.5 uM preincubated for 1.5 hrs followed by lactate and pyruvate addition and later stimulated with glucagon for 4 hrs; format: functional; conditions: Hepatocyte, time 5.5 hrs
[5] = Inhibition of gluconeogenesis in C57BL/6J mouse primary hepatocytes assessed as inhibition of glucagon-stimulated glucose production at 5 uM preincubated for 1.5 hrs followed by lactate and pyruvate addition and later stimulated with glucagon for 4 hrs; format: functional; conditions: Hepatocyte, time 5.5 hrs
[6] = Cytotoxicity against C57BL/6J mouse primary hepatocytes assessed as cell viability at 20 uM incubated for 24 hrs by MTT assay relative to control; format: toxicity, cell-based, Hepatocyte; conditions: read-out: Activity
[7] = Cytotoxicity against C57BL/6J mouse primary hepatocytes assessed as cell viability at 200 uM incubated for 24 hrs by MTT assay relative to control; format: toxicity, cell-based, Hepatocyte; conditions: read-out: Activity
[8] = Cytotoxicity against C57BL/6J mouse primary hepatocytes assessed as cell viability at 50 uM incubated for 24 hrs by MTT assay relative to control; format: toxicity, cell-based, Hepatocyte; conditions: read-out: Activity
[9] = target: Serine/threonine-protein kinase SIK1 (Mus musculus) (UniProt Q60670); test: Activation of SIK1 in C57BL/6J mouse primary hepatocytes assessed as increase in SIK1 phosphorylation at Thr182 residue measured after 2 hrs by western blot analysis; format: cell-based; conditions: Primary hepatocyte, filed as activator, dose 2.5-10 µM, DDE = dose-dependent effect
[10] = tested on: Mus musculus; test: Anti-hyperglycemic activity in ob/ob mouse assessed as reduction in fasting blood glucose level at 100 mg/kg, po administered once daily and measured after 21 days relative to control; format: functional; conditions: 504 h, time 21 day
[11] = tested on: Mus musculus; test: Anti-hyperglycemic activity in ob/ob mouse assessed as reduction in non-fasting blood glucose level at 100 mg/kg, po administered once daily and measured after 8 days relative to control; format: functional; conditions: 192 h, time 8 day
[12] = tested on: Mus musculus; test: Anti-hyperglycemic activity in ob/ob mouse assessed as reduction in non-fasting blood glucose level at 100 mg/kg, po administered once daily and measured after 21 days relative to control; format: functional; conditions: 504 h, time 21 day
[13] = tested on: Mus musculus; test: Acute hypoglycemic activity in type 2 diabetic ob/ob mouse assessed as reduction in fasting blood glucose level at 100 mg/kg, po administered as single dose and measured for 10 hrs; format: functional, organism-based
[14] = tested on: Mus musculus; test: In vivo activation of SIK1 in ob/ob mouse assessed as increase in SIK1 phosphorylation at Thr182 residue in liver at 100 mg/kg, po administered once daily for 21 days by western blot analysis; format: functional, organism-based; conditions: time 21.0 day
[15] = tested on: Mus musculus; test: In vivo activation of SIK1 in ob/ob mouse assessed as decrease in CREB phosphorylation in liver at 100 mg/kg, po administered once daily for 21 days by western blot analysis; format: functional, organism-based; conditions: time 21.0 day
[16] = tested on: Mus musculus; test: Anti-hyperglycemic activity in ob/ob mouse assessed as reduction in fasting blood glucose level at 100 mg/kg, po administered once daily and measured after 4 days relative to control; format: functional; conditions: 96 h, time 4 day

Chain of Serine/threonine-protein kinase SIK1 (Mus musculus) (Q60670 whole entry): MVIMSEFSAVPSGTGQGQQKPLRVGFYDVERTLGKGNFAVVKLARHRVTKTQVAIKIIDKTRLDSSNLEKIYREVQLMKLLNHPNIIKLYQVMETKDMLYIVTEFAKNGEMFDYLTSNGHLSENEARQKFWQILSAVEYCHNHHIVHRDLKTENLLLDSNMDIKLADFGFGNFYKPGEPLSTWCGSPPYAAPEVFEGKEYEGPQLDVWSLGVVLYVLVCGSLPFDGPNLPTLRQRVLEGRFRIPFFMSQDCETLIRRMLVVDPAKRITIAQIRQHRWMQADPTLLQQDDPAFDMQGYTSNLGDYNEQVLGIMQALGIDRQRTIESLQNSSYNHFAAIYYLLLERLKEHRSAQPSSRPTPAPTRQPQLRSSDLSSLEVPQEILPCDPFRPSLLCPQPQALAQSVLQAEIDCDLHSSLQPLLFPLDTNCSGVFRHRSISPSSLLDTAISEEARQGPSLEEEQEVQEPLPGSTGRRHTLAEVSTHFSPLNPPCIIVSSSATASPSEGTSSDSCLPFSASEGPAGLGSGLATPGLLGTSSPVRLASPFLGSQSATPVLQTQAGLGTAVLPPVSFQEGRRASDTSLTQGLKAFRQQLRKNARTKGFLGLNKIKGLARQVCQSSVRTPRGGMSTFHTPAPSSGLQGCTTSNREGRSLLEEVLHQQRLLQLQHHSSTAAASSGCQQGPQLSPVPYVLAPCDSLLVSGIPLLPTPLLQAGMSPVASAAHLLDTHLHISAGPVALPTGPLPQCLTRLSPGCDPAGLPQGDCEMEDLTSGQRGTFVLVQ

Row | Compound | inhibition at 10 µM [1] [%] | viability at 24 h, 10 µM [2] [%] | viability at 24 h, 100 µM [3] [%] | inhibition at 2.5 µM [4] [%] | inhibition at 5 µM [5] [%] | viability at 24 h, 20 µM [6] [%] | viability at 24 h, 200 µM [7] [%] | viability at 24 h, 50 µM [8] [%] | also measured
1 | CCO[C@@H]1OC[C@@]2(C(=O)OC)CCCC13[C@H]2CC[C@H]1[C@@H](C)c2ccoc2C[C@@H]13 | 24.9 | – | – | – | – | – | – | – | –
2 | CCCCO[C@@H]1OC[C@@]2(C(=O)OC)CCCC13[C@H]2CC[C@H]1[C@@H](C)c2ccoc2C[C@@H]13 | 36.2 | – | – | – | – | – | – | – | –
3 | COC(=O)[C@@]12CCCC3([C@H](OCCOCCOCCO)OC1)[C@H]2CC[C@H]1[C@@H](C)c2ccoc2C[C@@H]13 | 97.1 | 40.5 | 10.3 | 47.2 | 97.4 | 23.4 | 8.1 | 12.1 | –
4 | CC(=O)OC[C@@]12CCCC3([C@H](OCCO)OC1)[C@H]2CC[C@H]1[C@@H](C)c2ccoc2C[C@@H]13 | 82.7 | 83.2 | 92.4 | -2.1 | 32.1 | 78.1 | 14.2 | 85 | –
5 | COC(=O)[C@@]12CCCC3([C@H](OCCCCCO)OC1)[C@H]2CC[C@H]1[C@@H](C)c2ccoc2C[C@@H]13 | 89.2 | 70.1 | 19.3 | 32.2 | 82.7 | 33.3 | 18.7 | 17.2 | –
6 | COC(=O)[C@@]12CCCC3([C@H](OCCOCCO)OC1)[C@H]2CC[C@H]1[C@@H](C)c2ccoc2C[C@@H]13 | 95.6 | 28.3 | 10.6 | 67.3 | 93.3 | 17.4 | 7.9 | 12 | Activity [9]: Dde
7 | COC(=O)[C@@]12CCCC3([C@H](OCCO)OC1)[C@H]2CC[C@H]1[C@@H](C)[C@@H]2CCO[C@@H]2C[C@@H]13 | 15.9 | – | – | – | – | – | – | – | –
8 | COC(=O)[C@@]12CCCC3([C@H](O)OC1)[C@H]2CC[C@H]1[C@@H](C)[C@@H]2CCO[C@@H]2C[C@@H]13 | 41.1 | – | – | – | – | – | – | – | –
9 | CCCNC(=O)[C@@]12CCCC3([C@H](OCCO)OC1)[C@H]2CC[C@H]1[C@@H](C)c2ccoc2C[C@@H]13 | 62.1 | 84.3 | 57.4 | 21.2 | 45 | 77.5 | 27.5 | 70.5 | –
10 | COC(=O)[C@@]12CCC[C@]3(C(=O)OC1)[C@H]1Cc4occc4[C@H](C)[C@@H]1CC[C@@H]23 | 41.2 | – | – | – | – | – | – | – | –
11 | COC(=O)[C@@]12CCC[C@]3(COC1)[C@H]1Cc4occc4[C@H](C)[C@@H]1CC[C@@H]23 | 52 | – | – | – | – | – | – | – | –
12 | COC(=O)[C@@]12CCCC3([C@H](OCCCO)OC1)[C@H]2CC[C@H]1[C@@H](C)c2ccoc2C[C@@H]13 | 97.5 | 49.7 | 12 | 32.7 | 81.8 | 20.6 | 9.9 | 14.1 | –
13 | C[C@H]1c2ccoc2C[C@H]2[C@H]1CC[C@@H]1C23CCC[C@]1(C(=O)O)CO[C@H]3OCCO | 24.3 | – | – | – | – | – | – | – | –
14 | C[C@H]1c2ccoc2C[C@H]2[C@H]1CC[C@@H]1C23CCC[C@]1(CO)CO[C@H]3OCCO | 71.1 | 74.8 | 42.2 | 41.4 | 69.4 | 69.6 | 13.2 | 63.9 | –
15 | COC(=O)[C@@]12CCCC3([C@H](OCCOCCOCCOCCO)OC1)[C@H]2CC[C@H]1[C@@H](C)c2ccoc2C[C@@H]13 | 111 | 48.9 | 11 | 63.1 | 87.8 | 25.4 | 7.9 | 12.9 | Activity [9]: Dde
16 | CNC(=O)[C@@]12CCCC3([C@H](OCCO)OC1)[C@H]2CC[C@H]1[C@@H](C)c2ccoc2C[C@@H]13 | 56.6 | 82.9 | 82.6 | 9.6 | 34.2 | 84.7 | 76.3 | 85.8 | –
17 | CC(=O)OCCO[C@@H]1OC[C@@]2(CO)CCCC13[C@H]2CC[C@H]1[C@@H](C)c2ccoc2C[C@@H]13 | 77.3 | 81.7 | 79.9 | 25.1 | 54.4 | 84.1 | 14.1 | 77.7 | –
18 | COC(=O)[C@@]12CCCC3([C@H](OC)OC1)[C@H]2CC[C@H]1[C@@H](C)c2ccoc2C[C@@H]13 | 18.8 | – | – | – | – | – | – | – | –
19 | COC(=O)[C@@]12CCCC3([C@H](OCCCCO)OC1)[C@H]2CC[C@H]1[C@@H](C)c2ccoc2C[C@@H]13 | 92.7 | 54 | 18.7 | 47 | 95.8 | 27.5 | 17.6 | 19.8 | –
20 | COC(=O)[C@@]12CCCC3([C@H](OCCCCCCO)OC1)[C@H]2CC[C@H]1[C@@H](C)c2ccoc2C[C@@H]13 | 81.8 | 89.3 | 11.3 | 33.5 | 67.2 | 81.5 | 11.4 | 28.6 | –
21 | CCNC(=O)[C@@]12CCCC3([C@H](OCCO)OC1)[C@H]2CC[C@H]1[C@@H](C)c2ccoc2C[C@@H]13 | 66.1 | 84.2 | 73.4 | 21.8 | 52.8 | 84.1 | 47.5 | 90 | –
22 | COC(=O)[C@@]12CCCC3([C@H](O)OC1)[C@H]2CC[C@H]1[C@@H](C)c2ccoc2C[C@@H]13 | 70.5 | 99 | 7.5 | 24.9 | 49.7 | 84.6 | 7.2 | 29.4 | inhibition in vivo at 100 mg/kg [10]: 33.3%; inhibition in vivo at 100 mg/kg [11]: 28.2%; inhibition in vivo at 100 mg/kg [12]: 23.8%; Activity [13]: Active; Activity [14]: Active; Activity [15]: Active; inhibition in vivo at 100 mg/kg [16]: 24%
23 | COC(=O)[C@]12CCCC3([C@H]1CC[C@H]1[C@@H](C)c4ccoc4C[C@@H]13)[C@H](SCCO)OC2 | 67.3 | 105 | 10.2 | 13.1 | 44.4 | 97.9 | 9.2 | 74.1 | –
24 | COC(=O)[C@]12CCC[C@]3(COC1)[C@H]1C[C@H]4OCC[C@H]4[C@H](C)[C@@H]1CC[C@@H]23 | 36.3 | – | – | – | – | – | – | – | –
25 | COC(=O)[C@@]12CCCC3([C@H](OCCO)OC1)[C@H]2CC[C@H]1[C@@H](C)C2=CC(=O)O[C@]2(O)C[C@@H]13 | -12.3 | – | – | – | – | – | – | – | –

Reference: ChEMBL document CHEMBL5154738, “Design, synthesis and structural-activity relationship studies of phanginin A derivatives for regulating SIK1-cAMP/CREB signaling to suppress hepatic gluconeogenesis” (Eur J Med Chem, 2022)
